Experimental data as given in US5961892A, “Polyalkoxylated naphthopyrans” (PPG Industries Ohio, Inc., priority 1998, dated 1999).

Legend:
[1] = Photochromic response of test squares on optical bench (sensitivity, saturation optical density, bleach rate); assay type: physicochemical; conditions: for decrease in T 1/2 versus corresponding Comparative Example: % less than corresponding CE (Example 1 vs CE1; average of Examples 2 and 4 vs CE2; Example 3 vs CE3); for ΔOD@ Saturation: UV exposure continued for 15 minutes; for ΔOD@ Saturation / ΔOD/MIN Sensitivity: 72° F. (22.2° C.); for ΔOD/MIN Sensitivity: first five (5) seconds of UV exposure, expressed per minute, 0.15 to 0.20 mW/cm2; for Bleach Rate (T 1/2): time for absorbance of activated form to reach one half the highest absorbance at room temperature (72° F., 22.2° C.) after removal of activating light
Description: (§1) Testing was done with the photochromic compounds described in Examples 1 through 4 and Comparative Examples 1 through 3 in the following manner. A quantity of photochromic compound calculated to yield a 1.5×10-3 molal solution was added to a flask containing 50 grams of a monomer blend of 4 parts ethoxylated bisphenol A dimethacrylate (BPA 2EO DMA), 1 part poly(ethylene glycol) 600 dimethacrylate, and 0.033 weight percent 2,2'-azobis(2-methyl propionitrile) (AIBN). The photochromic compound was dissolved into the monomer blend by stirring and gentle heating, if necessary. After a clear solution was obtained, it was poured into a flat sheet mold having the interior dimensions of 2.2 mm×6 inches (15.24 cm)×6 inches (15.24 cm). The mold was sealed and placed in a horizontal air flow, programmable oven programmed to increase the temperature from 40° C. to 95° C. over a 5 hour interval, hold the temperature at 95° C. for 3 hours, lower it to 60° C. over a 2 hour interval and then hold it at 60° C. for 16 hours. After the mold was opened, the polymer sheet was cut using a diamond blade saw into 2 inch (5.1 centimeters) test squares.
The photochromic test squares prepared in Part A were tested for photochromic response on an optical bench. Prior to testing on the optical bench, the photochromic test squares were conditioned, i.e., exposed to 365 nanometer ultraviolet light for about 15 minutes to activate the photochromic compounds and then placed in a 76° C. oven for about 15 minutes to bleach or inactivate the photochromic compounds. The test squares were then cooled to room temperature, exposed to fluorescent room lighting for at least 2 hours and then kept covered for at least 2 hours prior to testing on an optical bench maintained at 72° F. (22.2° C.). The bench was fitted with a 250 watt Xenon arc lamp, a remote controlled shutter, a copper sulfate bath acting as a heat sink for the arc lamp, a Schott WG-320 nm cut-off filter which removes short wavelength radiation; neutral density filter(s) and a sample holder in which the square to be tested was inserted. The power output of the optical bench, i.e., the dosage of light that the sample lens would be exposed to, was calibrated with a photochromic test square used as a reference standard. […] The UV-A detector was placed into the sample holder and the light output was measured. Adjustments to the power output were made by increasing or decreasing the lamp wattage or by adding or removing neutral density filters in the light path.
A monitoring, collimated beam of light from a tungsten lamp was passed through the square at a small angle (approximately 30°) normal to the square. After passing through the square, the light from the tungsten lamp was directed to a detector through Spectral Energy Corp. GM-200 monochromator set at the previously determined visible lambda max of the photochromic compound being measured. The output signals from the detector were processed by a radiometer.
Change in optical density (ΔOD) was determined by inserting a test square in the bleached state into the sample holder, adjusting the transmittance scale to 100%, opening the shutter from the Xenon lamp to provide ultraviolet radiation to change the test square from the bleached state to an activated (i.e., darkened) state, measuring the transmittance in the activated state, and calculating the change in optical density according to the formula: ΔOD=log(100/% Ta), where % Ta is the percent transmittance in the activated state and the logarithm is to the base 10.
The ΔOD/Min, which represents the sensitivity of the photochromic compound's response to UV light, was measured over the first five (5) seconds of UV exposure, then expressed on a per minute basis. The saturation optical density (ΔOD@ Saturation) was taken under identical conditions as the ΔOD/Min, except UV exposure was continued for 15 minutes. […]

[2] = UV-Visible absorption (lambda max) of photochromic test square polymerizates in Varian Cary 3 UV-Visible spectrophotometer; assay type: physicochemical; conditions: 1.5×10-3 molal; for (λ) max (VIS): maximum absorption of the activated (colored) form in the visible spectrum, test square; for (λ) max (UV): wavelength in the ultraviolet range closest to the visible spectrum at which absorption occurs, test square of BPA 2EO DMA/poly(ethylene glycol) 600 dimethacrylate
Description: as §1
The ΔOD/Min, which represents the sensitivity of the photochromic compound's response to UV light, was measured over the first five (5) seconds of UV exposure, then expressed on a per minute basis. The saturation optical density (ΔOD@ Saturation) was taken under identical conditions as the ΔOD/Min, except UV exposure was continued for 15 minutes. The lambda max (Vis) is the wavelength in nanometers (nm) in the visible spectrum at which the maximum absorption of the activated (colored) form of the photochromic compound in a test square occurs. The lambda max (Vis) wavelength was determined by testing the photochromic test square polymerizates of Part A in a Varian Cary 3 UV-Visible spectrophotometer. The lambda (λ) max (UV) is the wavelength in nanometers in the ultraviolet range closest to the visible spectrum at which the absorption of the photochromic compound occurs. This absorption was also determined with the same spectrophotometer. The Bleach Rate (T 1/2) is the time interval in seconds for the absorbance of the activated form of the photochromic compound in the test squares to reach one half the highest absorbance at room temperature (72° F., 22.2° C.) after removal of the source of activating light.

Molecule | decrease in T 1/2 versus corresponding Comparative Example [1] [%] | Sensitivity, units less than corresponding Comparative Example ([1]; Example 1 versus Comparative Example 1) | ΔOD@ Saturation [1] | ΔOD/MIN Sensitivity [1] | Bleach Rate (T 1/2) [1] [min] | (λ) max (VIS) [2] [nm] | (λ) max (UV) [2] [nm]
2,2-bis(4-methoxyphenyl)-5-methoxycarbonyl-6-methoxy(polyethoxy)-2H-naphtho[1,2-b]pyran [Example 1] | 24 | more than 0.02 units | 0.48 | 0.19 ΔOD/MIN | 1.72 | 511 | 353
COCCOCCOC(=O)c1c2c(c3ccccc3c1-c1ccccc1)OC(c1ccccc1)(c1ccccc1)C=C2 [Example 2, 2,2-diphenyl-5-(2-(2-methoxyethoxy)ethoxycarbonyl)-6-phenyl[2H]naphtho[1,2-b]pyran] | – | – | 0.67 | 0.26 ΔOD/MIN | 2.78 | 486 | 348
COCCOCCOCCOC(=O)c1c2c(c3ccccc3c1C)OC(c1ccccc1)(c1ccccc1)C=C2 [Example 3, 2,2-diphenyl-5-(2-(2-(2-methoxyethoxy)ethoxy)ethoxycarbonyl)-6-methyl-2H-naphtho[1,2b]pyran] | 42 | – | 0.86 | 0.24 ΔOD/MIN | 4.5 | 475 | 349
COCCOCCOCCOC(=O)c1c2c(c3ccccc3c1-c1ccccc1)OC(c1ccccc1)(c1ccccc1)C=C2 [Example 4, 2,2-diphenyl-5-(2-(2-(2-methoxyethoxy)ethoxy)ethoxy-carbonyl)-6-phenyl-2H-naphtho[1,2-b]pyran] | – | – | 0.67 | 0.28 ΔOD/MIN | 2.75 | 486 | 348

The remaining lines, values ahead:

decrease in T 1/2 versus corresponding Comparative Example [1] [%] | Sensitivity, units less than corresponding Comparative Example ([1]; Example 1 versus Comparative Example 1) | ΔOD@ Saturation [1] | ΔOD/MIN Sensitivity [1] | Bleach Rate (T 1/2) [1] [min] | (λ) max (VIS) [2] [nm] | (λ) max (UV) [2] [nm] | Molecule
– | – | 0.77 | 0.29 ΔOD/MIN | 2.27 | 512 | 353 | COC(=O)c1c2c(c3ccccc3c1OC)OC(c1ccc(OC)cc1)(c1ccc(OC)cc1)C=C2 [CE1, 2,2-bis(4-methoxyphenyl)-5-methoxycarbonyl-6-methoxy-2H-naphtho[1,2-b]pyran, reference compound]
– | – | 0.80 | 0.28 ΔOD/MIN | 3.83 | 486 | 348 | COC(=O)c1c2c(c3ccccc3c1-c1ccccc1)OC(c1ccccc1)(c1ccccc1)C=C2 [CE2, 2,2-diphenyl-5-methoxycarbonyl-6-phenyl-2H-naphtho[1,2-b]pyran, reference compound]
– | – | 1.17 | 0.23 ΔOD/MIN | 7.75 | 476 | 349 | COC(=O)c1c2c(c3ccccc3c1C)OC(c1ccccc1)(c1ccccc1)C=C2 [CE3, 2,2-diphenyl-5-methoxycarbonyl-6-methyl-2H-naphtho[1,2b]pyran, reference compound]
